# From patent US20170101431A1, “NUCLEOSIDE DERIVATIVES FOR THE TREATMENT OF CANCER” (IDENIX PHARMACEUTICALS LLC, priority 2014, published 2017)
# Like-named read-outs stand apart in the source and are kept apart here.
# System: AML samples (live leukemic cells from bone marrow or peripheral blood of patients)
# Assay: Ex-vivo effect on AML patient samples (depletion of live leukemic cells, flow cytometry, Annexin V)
# Assay type: cell-based, human
# Protocol: Patient samples were obtained from a non-interventional and prospective study. The study included samples from adult patients over 18 years of age who were diagnosed with Acute Myeloid Leukemia (AML).
# In one embodiment, the method of data acquisition was performed as follows: on day 1 bone marrow (BM) or peripheral blood (PB) patient sample was received. A small part was separated from the rest of the sample for validation, while the majority of the sample was diluted with culture media and plated into 96-well plates previously prepared with the desired compounds and compound combinations, e.g., a compound or compound combination described herein. The number of live leukemic cells seeded in each well was fixed between 8000 and 32000, depending on the percentage of leukemic cells for each sample. […] Antibodies were added to identify leukemic cells using a gating strategy based on FSC/SSC and expression or lack of expression of different surface markers. The monoclonal antibodies selection was performed to optimize the identification of leukemic cell in each sample.
# In one embodiment, non-limiting examples of biomarkers such as the biomarkers CD34, CD45, CD117, and HLADR known as “backbone markers” for AML (van Dongen, J. J. and A. Orfao, EuroFlow: Resetting leukemia and lymphoma immunophenotyping. Basis for companion diagnostics and personalized medicine, Leukemia, 2012, 26, 1899-907) were included in the combination.
# In one embodiment, antibody combinations such as CD117/CD45, CD34/CD45, and HLADR/CD45 were used. Live leukemic cells were identified by their light scatter properties (FSC^int/hi/SSC^int) in the absence of Annexin-V-FITC staining. FSC/SSC selection was performed to exclude debris. The average percentage of cell viability upon receipt of the sample was 80% and samples were only processed if the viability was greater than 50%.
# In one embodiment, sample validation was performed as follows: BM and PB samples were extracted under sterile conditions and received in the laboratory within 24 hours of extraction. Initial analysis evaluated the number of pathological cells and their viability. Different volumes of sample (1 μL, 3 μL, 5 μL and 7 μL) were aliquoted in duplicate into a 96-well plate. To lyse red blood cells, 180 μL of ammonium chloride lysis solution was added to each well (2 g KHCO3, 16.58 g NH4Cl, 0.074 g Na2EDTA2.H2O, H2O to […]). Following a 10 min incubation period at 4° C., plate was centrifuged for 5 min at 1200 rpm and the supernatant removed. The lysis step was performed twice. To analyze, 20 μL of a combination of Annexin V-FITC (Immunostep, Salamanca, Spain), binding buffer (BB, 2.4 g HEPES, 8.19 g NaCl, 0.37 g Cl2Ca, H2O to […]), and the following monoclonal antibodies (mAb) were added to each well: CD117 (clone 104D2)-PE (Becton Dickinson, San Jose, Calif., US), CD34 (clone 581)-PerCP (BioLegend, San Diego, Calif., US), HLADR (clone L243)-PB (BioLegend) and CD45 (HI30)-PO (Life Technologies, Carlsbad, Calif., US) (van Dongen, J. J., et al., EuroFlow antibody panels for standardized n-dimensional flow cytometric immunophenotyping of normal, reactive and malignant leukocytes, Leukemia, 2012, 26, 1908-75). After 15 min of incubation at room temperature in the dark, a wash step was performed using binding buffer solution. The pellet was resuspended in 30 μL BB for analysis in Vivia's ExviTech© platform. Cell count and viability upon arrival were computed and the optimal volume of sample to use per well was determined.
# In one embodiment, the assay was performed according to following method: the whole sample was diluted with RPMI 1640, supplemented with 20% (v/v) FBS (Thermo Scientific, Waltham, Mass., US), 2% HEPES, 1% antibiotic (Zell Shield, Labclinics, Barcelona, Spain) and 1% L-glutamine 200 mM (Lonza, Hopkinton, Mass., US) to a final volume of 60 μL per well. […]
# [1] = Homo sapiens, 72 h, plates incubated for 72 hours
# [2] = Homo sapiens, 72 h, plates incubated for 72 hours, read-out: Emax
# [3] = Homo sapiens, 48 h, plates incubated for 48 hours
# [4] = Homo sapiens, 48 h, plates incubated for 48 hours, read-out: Emax
structure (smiles),measurement,setting,value
Nc1nc(Cl)nc2c1ncn2[C@@H]1O[C@H](COP(=O)(O)NCc2ccccc2)C(O)C1F (stereo partly shown),EC50,[1],≤ 1 µM
same,Emax,[2],0 to 10%
COC(=O)[C@H](CC(C)C)NP(=O)(N[C@@H](CC(C)C)C(=O)OC)OC[C@H]1O[C@@H](n2cnc3c(N)nc(Cl)nc32)C(F)C1O (stereo partly shown),EC50,[1],1 to 10 µM
same,Emax,[2],> 20%
Nc1ccn([C@@H]2O[C@H](COP(=O)(O)NCc3ccccc3)C(O)C2O)c(=O)n1 (stereo partly shown),EC50,[1],10 to 20 µM
same,Emax,[2],0 to 10%
CCCCCCCC/C=C/CCCCCCCC(=O)Nc1ccn([C@@H]2O[C@H](COP(=O)(N[C@@H](CC(C)C)C(=O)OC)N[C@@H](CC(C)C)C(=O)OC)C(O)C2O)c(=O)n1 (stereo partly shown),EC50,[1],10 to 20 µM
same,Emax,[2],> 20%
CC(C)(CO)C(=O)SCCOP(=O)(NCc1ccccc1)OC[C@H]1O[C@@H](n2ccc(N)nc2=O)C(O)C1O (stereo partly shown),EC50,[1],10 to 20 µM
same,Emax,[2],0 to 10%
CC(C)(O)C(=O)SCCOP(=O)(OCCSC(=O)C(C)(C)CO)OC[C@H]1O[C@@H](N2C=NC3C(N)=NC(Cl)=NC32)[C@@H](F)[C@@H]1O (stereo partly shown),EC50,[1],1 to 10 µM
same,Emax,[2],10 to 20%
CC(C)OC(=O)[C@H](C)NP(=O)(OC[C@H]1O[C@@H](n2cnc3c(N)nc(F)nc32)[C@@H](O)[C@@H]1O)Oc1ccccc1 (stereo partly shown),EC50,"Homo sapiens, plates incubated for 48 hours",≥ 20 µM
same,Emax,"Homo sapiens, plates incubated for 48 hours, read-out: Emax",0 to 10%
Nc1nc(F)nc2c1ncn2[C@@H]1O[C@H](COP(=O)(O)NCc2ccccc2)[C@@H](O)[C@@H]1O,EC50,[3],1 to 10 µM
same,Emax,[4],0 to 10%
CCOC(=O)[C@H](CC(C)C)NP(=O)(O)OC[C@H]1O[C@@H](N2C=NC3C(N)=NC(F)=NC32)[C@@H](O)[C@@H]1O (stereo partly shown),EC50,[3],10 to 20 µM
same,Emax,[4],> 20%
COC(=O)[C@H](CC(C)C)NP(=O)(N[C@@H](CC(C)C)C(=O)OC)OC[C@H]1O[C@@H](N2C=NC3C(N)=NC(F)=NC32)[C@@H](O)[C@@H]1O (stereo partly shown),EC50,[3],≥ 20 µM
same,Emax,[4],10 to 20%
COC(=O)COP(=O)(NC(CC(C)C)C(=O)OC)OC[C@H]1O[C@@H](n2cnc3c(N)nc(F)nc32)[C@@H](O)[C@@H]1O (stereo partly shown),EC50,[3],1 to 10 µM
same,Emax,[4],0 to 10%
"CCOC(=O)C(C)NP1(=O)OCC2O[C@@H](n3cnc4c(N)nc(Cl)nc43)[C@@H](F)[C@@H]2O1 (single isomer, unassigned) [drawing 653]",EC50,plates incubated for 72 hours,≤ 1 µM
same,Emax,plates incubated for 72 hours,A (A=0-10%)
"CCOC(=O)C(C)NP1(=O)OCC2O[C@@H](n3cnc4c(N)nc(Cl)nc43)[C@@H](F)[C@@H]2O1 (single isomer, unassigned) [drawing 654]",EC50,plates incubated for 72 hours,10 to 20 µM
same,Emax,plates incubated for 72 hours,B (B=10-20%)
"CC(C)(CO)C(=O)SCCOP(=O)(NCc1ccccc1)OC[C@H]1O[C@@H](n2cnc3c(N)nc(Cl)nc32)C(F)C1O (single isomer, unassigned) [drawing 657]",EC50,[1],≤ 1 µM
same,Emax,[2],10 to 20%
"CC(C)(CO)C(=O)SCCOP(=O)(NCc1ccccc1)OC[C@H]1O[C@@H](n2cnc3c(N)nc(Cl)nc32)C(F)C1O (single isomer, unassigned) [drawing 658]",EC50,plates incubated for 72 hours,1 to 10 µM
same,Emax,plates incubated for 72 hours,B (B=10-20%)
"COC(=O)COP(=O)(N[C@@H](CC(C)C)C(=O)OC)OC[C@H]1O[C@@H](n2cnc3c(N)nc(Cl)nc32)C(F)C1O (single isomer, unassigned) [drawing 659]",EC50,[1],1 to 10 µM
same,Emax,[2],> 20%
"COC(=O)COP(=O)(N[C@@H](CC(C)C)C(=O)OC)OC[C@H]1O[C@@H](n2cnc3c(N)nc(Cl)nc32)C(F)C1O (single isomer, unassigned) [drawing 660]",EC50,plates incubated for 72 hours,1 to 10 µM
same,Emax,plates incubated for 72 hours,B (B=10-20%)
"COC(=O)COP(=O)(N[C@@H](CC(C)C)C(=O)OC)OC[C@H]1O[C@@H](n2ccc(N)nc2=O)C(O)C1O (single isomer, unassigned) [drawing 662]",EC50,plates incubated for 72 hours,1 to 10 µM
same,Emax,plates incubated for 72 hours,B (B=10-20%)
"COC(=O)COP(=O)(N[C@@H](CC(C)C)C(=O)OC)OC[C@H]1O[C@@H](n2ccc(N)nc2=O)C(O)C1O (single isomer, unassigned) [drawing 663]",EC50,plates incubated for 72 hours,10 to 20 µM
same,Emax,plates incubated for 72 hours,A (A=0-10%)
"CCOC(=O)[C@H](CC(C)C)NP(=O)(OCC(=O)OC)OC[C@H]1O[C@@H](n2ccc(N)nc2=O)C(O)C1O (single isomer, unassigned) [drawing 664]",EC50,[1],1 to 10 µM
same,Emax,[2],0 to 10%
"CCOC(=O)[C@H](CC(C)C)NP(=O)(OCC(=O)OC)OC[C@H]1O[C@@H](n2ccc(N)nc2=O)C(O)C1O (single isomer, unassigned) [drawing 665]",EC50,plates incubated for 72 hours,1 to 10 µM
"Cn1c(COP(=O)(NCc2ccccc2)OC[C@H]2O[C@@H](n3ccc(N)nc3=O)C(O)C2O)cnc1[N+](=O)[O-] (single isomer, unassigned) [drawing 666]",EC50,[1],1 to 10 µM
same,Emax,[2],0 to 10%
"Cn1c(COP(=O)(NCc2ccccc2)OC[C@H]2O[C@@H](n3ccc(N)nc3=O)C(O)C2O)cnc1[N+](=O)[O-] (single isomer, unassigned) [drawing 667]",EC50,plates incubated for 72 hours,1 to 10 µM
"CCOC(=O)[C@H](CC(C)C)NP1(=O)OC[C@H]2O[C@@H](n3cnc4c(N)nc(F)nc43)[C@@H](O)[C@@H]2O1 (single isomer, unassigned) [drawing 672]",EC50,[3],10 to 20 µM
same,Emax,plates incubated for 48 hours,C (C>20%)
"CCOC(=O)[C@H](CC(C)C)NP1(=O)OC[C@H]2O[C@@H](n3cnc4c(N)nc(F)nc43)[C@@H](O)[C@@H]2O1 (single isomer, unassigned) [drawing 673]",EC50,plates incubated for 48 hours,≥ 20 µM
same,Emax,plates incubated for 48 hours,A (A=0-10%)
"CC(C)OP1(=O)OC[C@H]2O[C@@H](N3C=NC4C(N)=NC(F)=NC43)[C@@H](O)[C@@H]2O1 (single isomer, unassigned) [drawing 675]",EC50,[3],10 to 20 µM
same,Emax,[4],> 20%
"CC(C)OP1(=O)OC[C@H]2O[C@@H](N3C=NC4C(N)=NC(F)=NC43)[C@@H](O)[C@@H]2O1 (single isomer, unassigned) [drawing 676]",EC50,plates incubated for 48 hours,≥ 20 µM
same,Emax,plates incubated for 48 hours,C (C>20%)
"CCOC(=O)[C@H](C)NP1(=O)OC[C@H]2O[C@@H](n3cnc4c(N)nc(F)nc43)[C@@H](O)[C@@H]2O1 (single isomer, unassigned) [drawing 680]",EC50,[3],10 to 20 µM
same,Emax,[4],> 20%
"CCOC(=O)[C@H](C)NP1(=O)OC[C@H]2O[C@@H](n3cnc4c(N)nc(F)nc43)[C@@H](O)[C@@H]2O1 (single isomer, unassigned) [drawing 681]",EC50,plates incubated for 48 hours,10 to 20 µM
